The values below come from PMC3914206.

For assay [1], the target named is T1, panel of 442 kinases (Homo sapiens, UniProt Q96L34).
T1 construct: purchased KINOMEscan
T1 sequence (Q96L34 1-752): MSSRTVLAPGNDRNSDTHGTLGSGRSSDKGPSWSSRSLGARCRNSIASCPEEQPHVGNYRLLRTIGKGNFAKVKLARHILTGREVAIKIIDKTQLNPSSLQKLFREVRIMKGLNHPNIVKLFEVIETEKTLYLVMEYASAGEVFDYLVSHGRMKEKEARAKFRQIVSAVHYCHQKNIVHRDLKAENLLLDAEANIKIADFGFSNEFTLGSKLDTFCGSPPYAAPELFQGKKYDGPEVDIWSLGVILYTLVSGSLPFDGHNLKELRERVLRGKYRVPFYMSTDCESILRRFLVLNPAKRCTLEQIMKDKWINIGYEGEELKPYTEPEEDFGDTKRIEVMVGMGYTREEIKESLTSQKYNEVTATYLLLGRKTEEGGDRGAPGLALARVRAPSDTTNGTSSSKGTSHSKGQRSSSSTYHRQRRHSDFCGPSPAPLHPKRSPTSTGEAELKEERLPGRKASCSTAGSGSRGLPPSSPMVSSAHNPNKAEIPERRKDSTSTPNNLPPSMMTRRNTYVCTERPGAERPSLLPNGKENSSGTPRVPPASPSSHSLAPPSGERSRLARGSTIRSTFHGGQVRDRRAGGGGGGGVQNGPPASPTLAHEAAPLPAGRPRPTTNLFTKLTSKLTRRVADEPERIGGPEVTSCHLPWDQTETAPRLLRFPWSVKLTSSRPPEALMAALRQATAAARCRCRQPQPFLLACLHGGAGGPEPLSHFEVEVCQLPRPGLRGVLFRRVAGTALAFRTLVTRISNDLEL
Format: binding. Particulars: Compound Concentration 10 µM. From the text: (§1) We assessed the selectivity of members of this scaffold using the KINOMEscan methodology across a near comprehensive panel of 442 kinases [[18,27]].

In assay [2] the target is T2, panel of 442 kinases (Homo sapiens, UniProt P45985).
T2 construct: purchased KINOMEscan
T2 sequence (P45985 1-399): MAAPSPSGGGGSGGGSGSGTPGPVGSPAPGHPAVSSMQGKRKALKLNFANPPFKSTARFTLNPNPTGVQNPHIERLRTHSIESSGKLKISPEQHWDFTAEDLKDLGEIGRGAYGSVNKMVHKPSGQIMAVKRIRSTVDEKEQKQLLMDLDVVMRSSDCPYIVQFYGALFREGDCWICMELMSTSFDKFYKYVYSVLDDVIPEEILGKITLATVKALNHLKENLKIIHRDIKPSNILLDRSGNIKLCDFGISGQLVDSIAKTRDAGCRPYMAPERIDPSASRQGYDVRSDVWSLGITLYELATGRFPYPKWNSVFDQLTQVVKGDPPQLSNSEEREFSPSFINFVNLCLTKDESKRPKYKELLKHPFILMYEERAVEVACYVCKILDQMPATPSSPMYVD
It counts as binding. Conditions: Compound Concentration 10 µM.
Excerpt: as §1

Consider `COc1cc(C(=O)N2CCC(N3CCN(C)CC3)CC2)ccc1Nc1ncc2c(n1)N(C1CCCC1)c1ccccc1C(=O)N2C` [Compound 25, 11-cyclopentyl-2-((2-methoxy-4-(4-(4-methylpiperazin-1-yl)piperidine-1-carbonyl)phenyl)amino)-5-methyl-5H-benzo[e]pyrimido[5,4-b][1,4]diazepin-6(11H)-one], for which the “KINOMEscan: MARK4” value in assay [1] stood at 100. Moreover, the “KINOMEscan: MEK4” value in assay [2] is 100.

`COc1cc(C(=O)N2CCC(N3CCN(C)CC3)CC2)ccc1Nc1ncc2c(n1)N1CCc3cccc(c31)C(=O)N2C` [Compound 24]: the “KINOMEscan: MARK4” value in assay [1] is recorded as 87.

With `COc1cc(C(=O)N2CCC(N3CCN(C)CC3)CC2)ccc1Nc1ncc2c(n1)N(C)c1ccccc1C(=O)N2C` [15 (LRRK2-IN-1)], in assay [1], the “KINOMEscan: MARK4” value is on record as 78. For the same compound, the “KINOMEscan: MEK4” value in assay [2] was 100.

`CCOc1cc(C(=O)N2CCC(N3CCN(C)CC3)CC2)ccc1Nc1ncc2c(n1)N(C1CCCC1)c1ccccc1C(=O)N2C` [Compound 26]: the “KINOMEscan: MARK4” value in assay [1] was 100. In addition, the “KINOMEscan: MEK4” value in assay [2] was determined as 100.
